ChEMBL document CHEMBL1156251, “Structure--activity relationships of polymyxin antibiotics” (J Med Chem, 2010)
Values after ≈ are worked out from the molar mass of the structure shown. Values joined by “and” are separate entries in the source; they are usually repeats but may differ in a detail not shown here. Identical values can stand only once. Where a SMILES comes first, the peptide text is derived from it. Bridges are numbered along the chain shown (N, C = ends). [ ]: non-standard residue; d: D form. The star is where a group is joined. Nonanoyl = CCCCCCCCC(=O)*; Dab = NCC[C@H](N)C(=O)O

What was measured:
Escherichia coli = assay: Antimicrobial activity against Escherichia coli; assay type: functional
Klebsiella pneumoniae = assay: Antimicrobial activity against Klebsiella pneumoniae; assay type: functional
Salmonella enterica = assay: Antimicrobial activity against Salmonella enterica; assay type: functional
Pseudomonas aeruginosa = assay: Antimicrobial activity against Pseudomonas aeruginosa; assay type: functional, organism-based
Lipopolysaccharide (LPS) = assay: Displacement of dansyl-PMB from LPS by isothermal titration calorimetry

Row | MIC (Escherichia coli) | MIC (Klebsiella pneumoniae) [µg/mL] | MIC (Salmonella enterica) [µM] | MIC (Pseudomonas aeruginosa) [µM] | IC50 (Lipopolysaccharide (LPS)) | SMILES
1 | 12 µg/mL | 3.1 (≈ 1.67 µM) | – | – | – | CCC(C)CCCCC(=O)N[C@@H](CC/N=C/c1ccc(N(C)C)cc1)C(=O)N[C@@H](C(=O)N[C@@H](CC/N=C/c1ccc(N(C)C)cc1)C(=O)N[C@H]1CCNC(=O)[C@@H]([C@@H](C)O)NC(=O)[C@H](CC/N=C/c2ccc(N(C)C)cc2)NC(=O)[C@H](CC/N=C/c2ccc(N(C)C)cc2)NC(=O)[C@H](CC(C)C)NC(=O)[C@@H](Cc2ccccc2)NC(=O)[C@H](CC/N=C\c2ccc(N(C)C)cc2)NC1=O)[C@@H](C)O (some centres not stated)
2 | – | 26 (≈ 14.9 µM) | – | – | – | CCC(C)CCCCC(=O)N[C@@H](CC/N=C/c1ccc(O)c(OC)c1)C(=O)N[C@@H](C(=O)N[C@@H](CCN)C(=O)N[C@H]1CCNC(=O)[C@@H]([C@@H](C)O)NC(=O)[C@H](CC/N=C/c2ccc(O)c(OC)c2)NC(=O)[C@H](CC/N=C/c2ccc(O)c(OC)c2)NC(=O)[C@H](CC(C)C)NC(=O)[C@@H](Cc2ccccc2)NC(=O)[C@H](CC/N=C/c2ccc(O)c(OC)c2)NC1=O)[C@@H](C)O (some centres not stated)
3 | 12 µg/mL | 26 (≈ 15 µM) | – | – | – | CCC(C)CCCCC(=O)N[C@@H](CCNCc1ccc(C(C)C)cc1)C(=O)N[C@@H](C(=O)N[C@@H](CCN)C(=O)N[C@H]1CCNC(=O)[C@@H]([C@@H](C)O)NC(=O)[C@H](CCNCc2ccc(C(C)C)cc2)NC(=O)[C@H](CCNCc2ccc(C(C)C)cc2)NC(=O)[C@H](CC(C)C)NC(=O)[C@@H](Cc2ccccc2)NC(=O)[C@H](CCNCc2ccc(C(C)C)cc2)NC1=O)[C@@H](C)O (some centres not stated)
4 | 724 µg/mL | 12 (≈ 6.92 µM) | – | – | – | CCC(C)CCCCC(=O)N[C@@H](CCNCc1ccc(O)c(OC)c1)C(=O)N[C@@H](C(=O)N[C@@H](CCN)C(=O)N[C@H]1CCNC(=O)[C@@H]([C@@H](C)O)NC(=O)[C@H](CCNCc2ccc(O)c(O)c2)NC(=O)[C@H](CCNCc2ccc(O)c(OC)c2)NC(=O)[C@H](CC(C)C)NC(=O)[C@@H](Cc2ccccc2)NC(=O)[C@H](CCNCc2ccc(O)c(OC)c2)NC1=O)[C@@H](C)O (some centres not stated)
5 | 5.5 µg/mL | 2.8 (≈ 1.64 µM) | – | – | – | CCC(C)CCCCC(=O)N[C@@H](CC/N=C/c1ccc(O)c(OC)c1)C(=O)N[C@@H](C(=O)N[C@@H](CCN)C(=O)N[C@H]1CCNC(=O)[C@@H]([C@@H](C)O)NC(=O)[C@H](CC/N=C/c2ccc(O)c(OC)c2)NC(=O)[C@H](CC/N=C/c2ccc(O)c(OC)c2)NC(=O)[C@H](CC(C)C)NC(=O)[C@@H](CC(C)C)NC(=O)[C@H](CC/N=C/c2ccc(O)c(OC)c2)NC1=O)[C@@H](C)O (some centres not stated)
6 | – | 26 (≈ 16.1 µM) | – | – | – | CCC(C)CCCCC(=O)N[C@@H](CC/N=C/c1ccc(O)cc1)C(=O)N[C@H](C(=O)N[C@@H](CCN)C(=O)N[C@H]1CCNC(=O)[C@H]([C@@H](C)O)NC(=O)[C@H](CC/N=C/c2ccc(O)cc2)NC(=O)[C@H](CC/N=C/c2ccc(O)cc2)NC(=O)[C@H](CC(C)C)NC(=O)[C@@H](Cc2ccccc2)NC(=O)[C@H](CC/N=C/c2ccc(O)cc2)NC1=O)[C@@H](C)O (some centres not stated)
7 | – | 26 (≈ 16.7 µM) | – | – | – | CCC(C)CCCCC(=O)N[C@@H](CC/N=C/c1ccccc1)C(=O)N[C@H](C(=O)N[C@@H](CCN)C(=O)N[C@H]1CCNC(=O)[C@H]([C@@H](C)O)NC(=O)[C@H](CC/N=C/c2ccccc2)NC(=O)[C@H](CC/N=C/c2ccccc2)NC(=O)[C@H](CC(C)C)NC(=O)[C@@H](Cc2ccccc2)NC(=O)[C@H](CC/N=C/c2ccccc2)NC1=O)[C@@H](C)O (some centres not stated)
8 | 6.2 µg/mL | 1.6 (≈ 0.983 µM) | – | – | – | CCC(C)CCCCC(=O)N[C@@H](CCNCc1ccc(O)cc1)C(=O)N[C@H](C(=O)N[C@@H](CCN)C(=O)N[C@H]1CCNC(=O)[C@H]([C@@H](C)O)NC(=O)[C@H](CCNCc2ccc(O)cc2)NC(=O)[C@H](CCNCc2ccc(O)cc2)NC(=O)[C@H](CC(C)C)NC(=O)[C@@H](Cc2ccccc2)NC(=O)[C@H](CCNCc2ccc(O)cc2)NC1=O)[C@@H](C)O (some centres not stated)
9 | 12 µg/mL | 3.1 (≈ 1.83 µM) | – | – | – | CCC(C)CCCCC(=O)N[C@@H](CC/N=C/c1ccc(N(C)C)cc1)C(=O)N[C@H](C(=O)N[C@@H](CCN)C(=O)N[C@H]1CCNC(=O)[C@H]([C@@H](C)O)NC(=O)[C@H](CC/N=C/c2ccc(N(C)C)cc2)NC(=O)[C@H](CC/N=C/c2ccc(N(C)C)cc2)NC(=O)[C@H](CC(C)C)NC(=O)[C@@H](CC(C)C)NC(=O)[C@H](CC/N=C/c2ccc(N(C)C)cc2)NC1=O)[C@@H](C)O (some centres not stated)
10 | 5.5 µg/mL | 1.4 (≈ 0.878 µM) | – | – | – | CCC(C)CCCCC(=O)N[C@@H](CCNCc1ccc(O)cc1)C(=O)N[C@H](C(=O)N[C@@H](CCN)C(=O)N[C@H]1CCNC(=O)[C@H]([C@@H](C)O)NC(=O)[C@H](CCNCc2ccc(O)cc2)NC(=O)[C@H](CCNCc2cccc(O)c2)NC(=O)[C@H](CC(C)C)NC(=O)[C@@H](CC(C)C)NC(=O)[C@H](CCNCc2ccc(O)cc2)NC1=O)[C@@H](C)O (some centres not stated)
11 | 5 µg/mL | 1.3 (≈ 0.85 µM) | – | – | – | CCC(C)CCCCC(=O)N[C@@H](CCNCc1ccccc1)C(=O)N[C@H](C(=O)N[C@@H](CCN)C(=O)N[C@H]1CCNC(=O)[C@H]([C@@H](C)O)NC(=O)[C@H](CCNCc2ccccc2)NC(=O)[C@H](CCNCc2ccccc2)NC(=O)[C@H](CC(C)C)NC(=O)[C@@H](CC(C)C)NC(=O)[C@H](CCNCc2ccccc2)NC1=O)[C@@H](C)O (some centres not stated)
12 | 0.08 µg/mL | 26 (≈ 17.1 µM) | – | – | – | CCC(C)CCCCC(=O)N[C@@H](CC/N=C/c1ccccc1)C(=O)N[C@H](C(=O)N[C@@H](CCN)C(=O)N[C@H]1CCNC(=O)[C@H]([C@@H](C)O)NC(=O)[C@H](CC/N=C/c2ccccc2)NC(=O)[C@H](CC/N=C/c2ccccc2)NC(=O)[C@H](CC(C)C)NC(=O)[C@@H](CC(C)C)NC(=O)[C@H](CC/N=C/c2ccccc2)NC1=O)[C@@H](C)O (some centres not stated)
13 | 1 µM | – | 1 (≈ 1.2 µg/mL) | 1 (≈ 1.2 µg/mL) | 6 µM | CCCCCCCCC(=O)N[C@@H](CCN)C(=O)N[C@H](C(=O)N[C@@H](CCN)C(=O)N[C@H]1CCNC(=O)[C@H]([C@@H](C)O)NC(=O)[C@H](CCN)NC(=O)[C@H](CCN)NC(=O)[C@H](CC(C)C)NC(=O)[C@@H](Cc2ccccc2)NC(=O)[C@H](CCN)NC1=O)[C@@H](C)O [POLYMYXIN B5] (Nonanoyl-[Dab]T[Dab][Dab][Dab][dF]L[Dab][Dab]T; lactam 4-C)
14 | 0.5 µM | – | 0.5 (≈ 0.61 µg/mL) | 0.5 (≈ 0.61 µg/mL) | 7 µM | CCC(C)CCC(O)CC(=O)N[C@@H](CCN)C(=O)N[C@H](C(=O)N[C@@H](CCN)C(=O)N[C@H]1CCNC(=O)[C@H]([C@@H](C)O)NC(=O)[C@H](CCN)NC(=O)[C@H](CCN)NC(=O)[C@H](CC(C)C)NC(=O)[C@@H](Cc2ccccc2)NC(=O)[C@H](CCN)NC1=O)[C@@H](C)O (some centres not stated) [POLYMYXIN B6]
15 | ≥ 256 µM and ≥ 300 µg/mL | – | ≥ 256 | 128 (≈ 97.5 µg/mL) | >= 32 nmol/ml | CC(C)C[C@@H]1NC(=O)[C@@H](Cc2ccccc2)NC(=O)[C@H](CCN)NC(=O)[C@@H](N)CCNC(=O)[C@H]([C@@H](C)O)NC(=O)[C@H](CCN)NC(=O)[C@H](CCN)NC1=O [POLYMYXIN B HEPTAPEPTIDE]
16 | ≥ 128 µM and ≥ 300 µg/mL | – | 256 (≈ 221 µg/mL) | 64 (≈ 55.2 µg/mL) | 21 µM | CC(C)C[C@@H]1NC(=O)[C@@H](Cc2ccccc2)NC(=O)[C@H](CCN)NC(=O)[C@@H](NC(=O)[C@@H](N)CCN)CCNC(=O)[C@H]([C@@H](C)O)NC(=O)[C@H](CCN)NC(=O)[C@H](CCN)NC1=O [POLYMYXIN B OCTAPEPTIDE] (H-[Dab][Dab][Dab][dF]L[Dab][Dab]T; lactam 2-C)
